The values below come from the supplement of paper PMC10307832.

Assay in all cases: relative viability (nuclei count vs DMSO), 5 days (fraction); higher = more cells survive
Compound in assay [1]: CC(C)N(CCCNC(=O)Nc1ccc(C(C)(C)C)cc1)C[C@H]1O[C@@H](n2ccc3c(N)ncnc32)[C@H](O)[C@@H]1O + CS(=O)(=O)CCNCc1ccc(-c2ccc3ncnc(Nc4ccc(OCc5cccc(F)c5)c(Cl)c4)c3c2)o1 [Lapatinib] (partner 2 µM)
The method in brief: (§1)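 The day after seeding in 1536-well plates, lung cancer cell lines were treated by pin tool with a single drug, or with a fixed anchor-drug dose together with five library-drug doses (not always all listed) in √10 steps. After 5 days, a combined fix-and-stain solution (final 0.05% Triton X-100, 1% formaldehyde, 1 ug/ml Hoechst) was added. Nuclei counted on 4× images gave relative viability as treated counts over vehicle counts, reported as the median of duplicate plates.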

Compound in assay [2]: CC(C)=CC[C@@H](O)C1=CC(=O)c2c(O)ccc(O)c2C1=O [Shikonin] + O=C(CCCCCCC(=O)Nc1ccccc1)NO [Vorinostat] (partner 1 µM)
In short, it runs like this: as §1

Compound in assay [3]: CC(C)=CC[C@@H](O)C1=CC(=O)c2c(O)ccc(O)c2C1=O [Shikonin] + Cc1nc(NC(=O)N2CCC[C@H]2C(N)=O)sc1-c1ccnc(C(C)(C)C(F)(F)F)c1 [Alpelisib] (partner 2 µM)
In short, it runs like this: as §1

Compound in assay [4]: CC(C)=CC[C@@H](O)C1=CC(=O)c2c(O)ccc(O)c2C1=O [Shikonin] + Nc1ncn([C@H]2C[C@H](O)[C@@H](CO)O2)c(=O)n1 [Decitabine] (partner 2 µM)
The method in brief:
as §1

Consider UMC-11, for which the relative viability was 0.864 in assay [1] (first compound 0.08 µM); 0.772 in assay [1] (first compound 0.253 µM); 0.846 in assay [1] (first compound 0.8 µM); 1.02 in assay [1] (first compound 2.53 µM); 1.05 in assay [1] (first compound 8 µM); 0.322 in assay [2] (first compound 0.01 µM). In addition, the relative viability in assay [2] (first compound 0.1 µM) is 0.34; in assay [2] (first compound 0.3162 µM), 0.415; in assay [2] (first compound 1 µM), 0.396; in assay [3] (first compound 0.01 µM) it was 0.875; in assay [3] (first compound 0.1 µM), 1.08; in assay [3] (first compound 0.3162 µM), 0.996. Also, the relative viability in assay [3] (first compound 1 µM) is 1.18; in assay [4] (first compound 0.01 µM) it was 0.576; in assay [4] (first compound 0.1 µM) it was 0.614; in assay [4] (first compound 0.3162 µM), 0.665; in assay [4] (first compound 1 µM), 0.74.
